This is an account of results in patent publication US20110190235A1, “BORON-CONTAINING SMALL MOLECULES AS ANTIPROTOZOAL AGENTS” (Anacor Pharmaceuticals, Inc., priority 2009, published 2011).

Like-named read-outs stand apart in the source and are kept apart here.

Series [1] relates to bloodstream-form trypanosome T. brucei brucei 427 strain. Briefly: Trypanosoma brucei brucei high-throughput in vitro drug sensitivity assay (resazurin). The format is cell-based. The note with it: for IC50: Trypanosoma brucei; for Selectivity Index (L929 IC50 / T. b. brucei IC50): T. b. brucei vs L929. For orientation: The colour change of resazurin is a common sign of viable cells or microbes.

The nature of series [2]: L929 cytotoxicity evaluation (resazurin). The note with it: mouse, 72 hrs incubation, read-out: Cytotox L-929 IC50. The format is cell-based. On the procedure:
For evaluation of compound effects on mammalian cells, L929 mouse fibroblast cells were used. Cells were maintained as adherent cultures in T-25 vented cap flasks in a humidified incubator at 37° C. in the presence of 5% CO2. Culture media was D-MEM supplemented with 10% fetal bovine serum and 1% penicillin/streptomycin. L929 cells were maintained below confluent levels by sub-culturing at 1:10 dilution twice weekly using 0.05% trypsin for detachment.
Sub-confluent L929 cells were trypsinized, resuspended in fresh media and 10 uL was counted using hemocytometer to determine cell concentration. Cells were diluted to 1×10^4/mL in DMEM, dispensed (100 uL) into 96-well plates using a Multidrop 384 dispenser and allowed to attach overnight. Spent media was replaced with 99.5 uL fresh D-MEM and compounds to be tested were serially diluted in DMSO and 0.5 uL added using a Biomek NX liquid handler. Plates were incubated with compounds for 72 hrs at 37° C. with 5% CO2. Resazurin (20 uL of 12.5 mg/ml stock) from Sigma-Aldrich was added to each well and plates were incubated for an additional 3-4 hrs. Assay plates were read using an EnVision plate reader at an excitation wavelength of 544 nm and emission of 590 nm. Single data points were used to generate sigmoidal dose response curves and determine IC50 values using XLfit curve fitting software from IDBS (Guildford, UK).

Where [3] appears, read: 72 hrs incubation, read-out: T.b. brucei IC50.
Where [4] appears, read: 72 hrs incubation, read-out: T. b. brucei IC50.

`CC(=O)Nc1ccc(C(=O)Nc2ccc3c(c2)B(O)OC3(C)C)cc1` [compound 59, 4-Acetylamino-N-(1-hydroxy-3,3-dimethyl-1,3-dihydro-benzo[c][1,2]oxaborol-6-yl)-benzamide]: the IC50 in series [1] (setting [3]) was determined as 1.61 µg/mL. Further, the IC50 at 72 h in series [2] (L929 mouse fibroblast cells) was more than 10 µg/mL.

On to `CC1(C)OB(O)c2cc(NC(=O)c3cc(C(F)(F)F)cc(C(F)(F)F)c3)ccc21` [compound 80, N-(1-Hydroxy-3,3-dimethyl-1,3-dihydro-benzo[c][1,2]oxaborol-6-yl)-3,5-bis-trifluoromethyl-benzamide], for which the IC50 in series [1] (setting [3]) was more than 5 µg/mL. The IC50 at 72 h in series [2] (L929 mouse fibroblast cells) is more than 10 µg/mL.

As to `CC1(C)OB(O)c2cc(NC(=O)c3cccc(F)c3)ccc21` [compound 41, 3-Fluoro-N-(1-hydroxy-3,3-dimethyl-1,3-dihydro-benzo[c][1,2]oxaborol-6-yl)-benzamide], the IC50 in series [1] (setting [3]) was more than 5 µg/mL. In addition, the IC50 at 72 h in series [2] (L929 mouse fibroblast cells) was more than 10 µg/mL.

On to `COc1ccc(C(=O)Nc2ccc3c(c2)B(O)OC3(C)C)c(OC)c1` [compound 94], for which, in series [1] (setting [3]), the IC50 amounted to 0.4 µg/mL. In series [2] (L929 mouse fibroblast cells), the IC50 at 72 h was more than 10 µg/mL.

For `CC1(C)OB(O)c2cc(NC(=O)C(F)(F)C(F)(F)C(F)(F)F)ccc21` [compound 131, 2,2,3,3,4,4,4-Heptafluoro-N-(1-hydroxy-3,3-dimethyl-1,3-dihydro-benzo[c][1,2]oxaborol-6-yl)-butyramide], the IC50 in series [1] (72 h, read-out: T.b. brucei IC50 (ug/mL)) was more than 5 µg/mL. Further, the IC50 at 72 h in series [2] was more than 10 µg/mL.

`CC1(C)OB(O)c2cc(NC(=O)c3ccc(-c4cccs4)cc3)ccc21` [compound 60, N-(1-Hydroxy-3,3-dimethyl-1,3-dihydro-benzo[c][1,2]oxaborol-6-yl)-4-thiophen-2-yl-benzamide]: the IC50 in series [1] (setting [3]) was 0.205 µg/mL. Moreover, the IC50 at 72 h in series [2] (L929 mouse fibroblast cells) is more than 10 µg/mL.

Regarding `CC(C)CC1OB(O)c2cc(NC(=O)c3ccccc3Cl)ccc21` (stereo not shown) [compound 25, 2-Chloro-N-(1-hydroxy-3-isobutyl-1,3-dihydro-benzo[c][1,2]oxaborol-6-yl)-benzamide], the IC50 in series [1] (setting [4]) was more than 14.6 µM; in series [1] (setting [3]), more than 5 µg/mL. In addition, in series [2] (L929 mouse fibroblast cells), the IC50 at 72 h is more than 10 µg/mL.

On to `Cc1occc1C(=O)Nc1ccc2c(c1)B(O)OC2(C)C` [compound 121, 2-Methyl-furan-3-carboxylic acid (1-hydroxy-3,3-dimethyl-1,3-dihydro-benzo[c][1,2]oxaborol-6-yl)-amide], for which the IC50 in series [1] (setting [3]) is 3.2 µg/mL. Further, in series [2] (L929 mouse fibroblast cells), the IC50 at 72 h was more than 10 µg/mL.

Turning to `CC1(C)OB(O)c2cc(NC(=O)c3ccc(C#N)cc3)ccc21` [compound 57, 4-Cyano-N-(1-hydroxy-3,3-dimethyl-1,3-dihydro-benzo[c][1,2]oxaborol-6-yl)-benzamide], the IC50 in series [1] (setting [3]) was more than 5 µg/mL. In addition, in series [2] (L929 mouse fibroblast cells), the IC50 at 72 h was more than 10 µg/mL.

`CC1(C)OB(O)c2cc(NC(=O)c3cccnc3)ccc21` [compound 115, N-(1-Hydroxy-3,3-dimethyl-1,3-dihydro-benzo[c][1,2]oxaborol-6-yl)-nicotinamide]: the IC50 in series [1] (setting [3]) was more than 5 µg/mL. The IC50 at 72 h in series [2] (L929 mouse fibroblast cells) is more than 10 µg/mL.

`CCc1ccc(C(=O)Nc2ccc3c(c2)B(O)OC3(C)C)cc1` [compound 30, 4-Ethyl-N-(1-hydroxy-3,3-dimethyl-1,3-dihydro-benzo[c][1,2]oxaborol-6-yl)-benzamide]: the IC50 in series [1] (setting [3]) came out at 0.427 µg/mL. In addition, the IC50 at 72 h in series [2] (L929 mouse fibroblast cells) is more than 10 µg/mL.

For the molecule `COc1ccc(C(=O)Nc2ccc3c(c2)B(O)OC3(C)C)cc1` [compound 48, N-(1-Hydroxy-3,3-dimethyl-1,3-dihydro-benzo[c][1,2]oxaborol-6-yl)-4-methoxy-benzamide], the “Selectivity Index (L929 IC50 / T. b. brucei IC50)” value in series [1] is reported as more than 9. Also, the IC50 is 3.57 µM in series [1] (setting [4]) and 1.11 µg/mL in series [1] (setting [3]). Further, in series [2] (L929 mouse fibroblast cells), the IC50 at 72 h is more than 10 µg/mL.

With `COC(=O)c1ccc(C(=O)Nc2ccc3c(c2)B(O)OC3(C)C)cc1` [compound 58, N-(1-Hydroxy-3,3-dimethyl-1,3-dihydro-benzo[c][1,2]oxaborol-6-yl)-terephthalamic acid methyl ester], in series [1] (setting [3]), the IC50 was 1.11 µg/mL. For the same molecule, the IC50 at 72 h in series [2] (L929 mouse fibroblast cells) is more than 10 µg/mL.

In the case of `Cc1ccccc1C(=O)Nc1ccc2c(c1)B(O)OC2(C)C` [compound 27, N-(1-Hydroxy-3,3-dimethyl-1,3-dihydro-benzo[c][1,2]oxaborol-6-yl)-2-methylbenzamide], the IC50 in series [1] (setting [3]) stood at 2.24 µg/mL. Also, the IC50 at 72 h in series [2] (L929 mouse fibroblast cells) is more than 10 µg/mL.

For `CC1(C)OB(O)c2cc(NC(=O)c3cccc(C(F)(F)F)c3F)ccc21` [compound 83, 2-Fluoro-N-(1-hydroxy-3,3-dimethyl-1,3-dihydro-benzo[c][1,2]oxaborol-6-yl)-3-trifluoromethyl-benzamide], the IC50 in series [1] (setting [3]) was 0.543 µg/mL. Besides, the IC50 at 72 h in series [2] (L929 mouse fibroblast cells) was more than 10 µg/mL.

As to `CC1(C)OB(O)c2cc(NC(=O)c3ccc([N+](=O)[O-])cc3)ccc21` [compound 56, N-(1-Hydroxy-3,3-dimethyl-1,3-dihydro-benzo[c][1,2]oxaborol-6-yl)-4-nitro-benzamide], the IC50 in series [1] (setting [3]) is more than 5 µg/mL. The IC50 at 72 h in series [2] (L929 mouse fibroblast cells) was more than 10 µg/mL.

With `CC1(C)OB(O)c2cc(NC(=O)C3CCC3)ccc21` [compound 127, Cyclobutanecarboxylic acid (1-hydroxy-3,3-dimethyl-1,3-dihydro-benzo[c][1,2]oxaborol-6-yl)-amide], the IC50 in series [1] (setting [3]) was found to be 2.85 µg/mL. Further, in series [2] (L929 mouse fibroblast cells), the IC50 at 72 h is more than 10 µg/mL.

In the case of `CC(C)CC1OB(O)c2cc(NC(=O)c3ccc(F)cc3)ccc21` (stereo not shown) [compound 24, 4-Fluoro-N-(1-hydroxy-3-isobutyl-1,3-dihydro-benzo[c][1,2]oxaborol-6-yl)-benzamide], the IC50 in series [1] (setting [4]) was more than 15.3 µM; in series [1] (setting [3]), more than 5 µg/mL. In series [2] (L929 mouse fibroblast cells), the IC50 at 72 h is more than 10 µg/mL.

Regarding `CC1(C)OB(O)c2cc(NC(=O)C3CCCCC3)ccc21` [compound 129, Cyclohexanecarboxylic acid (1-hydroxy-3,3-dimethyl-1,3-dihydro-benzo[c][1,2]oxaborol-6-yl)-amide], the IC50 in series [1] (setting [3]) is more than 5 µg/mL. For the same molecule, in series [2] (L929 mouse fibroblast cells), the IC50 at 72 h was more than 10 µg/mL.

For the molecule `COc1cccc(C(=O)Nc2ccc3c(c2)B(O)OC3(C)C)c1` [compound 47, N-(1-Hydroxy-3,3-dimethyl-1,3-dihydro-benzo[c][1,2]oxaborol-6-yl)-3-methoxy-benzamide], in series [1] (setting [3]), the IC50 amounted to 2.35 µg/mL. In series [2] (L929 mouse fibroblast cells), the IC50 at 72 h was more than 10 µg/mL.

Turning to `CC1(C)OB(O)c2cc(NC(=O)c3ccc(F)cc3F)ccc21` [compound 63, 2,4-Difluoro-N-(1-hydroxy-3,3-dimethyl-1,3-dihydro-benzo[c][1,2]oxaborol-6-yl)-benzamide], the “Selectivity Index (L929 IC50 / T. b. brucei IC50)” value in series [1] was more than 4. Also, the values for the IC50 in series [1] (setting [4]) and in series [1] (setting [3]) were 8.39 µM and 2.66 µg/mL, respectively. Besides, the IC50 at 72 h in series [2] (L929 mouse fibroblast cells) was more than 10 µg/mL.

For the molecule `CC1(C)OB(O)c2cc(NC(=O)c3cccc(Cl)c3)ccc21` [compound 42, 3-Chloro-N-(1-hydroxy-3,3-dimethyl-1,3-dihydro-benzo[c][1,2]oxaborol-6-yl)-benzamide], the IC50 in series [1] (setting [3]) came out at 2.12 µg/mL. Also, the IC50 at 72 h in series [2] (L929 mouse fibroblast cells) is more than 10 µg/mL.

For `CCCc1ccc(C(=O)Nc2ccc3c(c2)B(O)OC3(C)C)c(Cl)c1` [compound 102, 2-Chloro-N-(1-hydroxy-3,3-dimethyl-1,3-dihydro-benzo[c][1,2]oxaborol-6-yl)-4-propyl-benzamide], the IC50 in series [1] (setting [3]) is 0.125 µg/mL. For the same molecule, the IC50 at 72 h in series [2] (L929 mouse fibroblast cells) is more than 10 µg/mL.

`CC1(C)OB(O)c2cc(NC(=O)c3cccc(Cl)c3F)ccc21` [compound 70, 3-Chloro-2-fluoro-N-(1-hydroxy-3,3-dimethyl-1,3-dihydro-benzo[c][1,2]oxaborol-6-yl)-benzamide]: in series [1] (setting [3]), the IC50 was 0.377 µg/mL. Also, the IC50 at 72 h in series [2] (L929 mouse fibroblast cells) is more than 10 µg/mL.

For the molecule `CC1(C)OB(O)c2cc(NC(=O)c3cc(C(F)(F)F)ccc3Cl)ccc21` [compound 90, 2-Chloro-N-(1-hydroxy-3,3-dimethyl-1,3-dihydro-benzo[c][1,2]oxaborol-6-yl)-5-trifluoromethyl-benzamide], the IC50 in series [1] (setting [3]) stood at 0.514 µg/mL. Also, in series [2] (L929 mouse fibroblast cells), the IC50 at 72 h was more than 10 µg/mL.

In the case of `CC1(C)OB(O)c2cc(NC(=O)c3c(F)ccc(F)c3Cl)ccc21` [compound 104, 2-Chloro-3,6-difluoro-N-(1-hydroxy-3,3-dimethyl-1,3-dihydro-benzo[c][1,2]oxaborol-6-yl)-benzamide], the IC50 in series [1] (setting [3]) is 1.12 µg/mL. For the same molecule, the IC50 at 72 h in series [2] (L929 mouse fibroblast cells) was more than 10 µg/mL.

`CC1(C)OB(O)c2cc(NC(=O)c3c(Cl)cccc3Cl)ccc21` [compound 68, 2,6-Dichloro-N-(1-hydroxy-3,3-dimethyl-1,3-dihydro-benzo[c][1,2]oxaborol-6-yl)-benzamide]: the IC50 in series [1] (setting [3]) came out at 2.23 µg/mL. Moreover, the IC50 at 72 h in series [2] (L929 mouse fibroblast cells) was more than 10 µg/mL.

As for `CC1(C)OB(O)c2cc(NC(=O)c3cc(C(F)(F)F)ccc3F)ccc21` [compound 85, 2-Fluoro-N-(1-hydroxy-3,3-dimethyl-1,3-dihydro-benzo[c][1,2]oxaborol-6-yl)-5-trifluoromethyl-benzamide], the IC50 in series [1] (setting [3]) stood at 1.14 µg/mL. Also, the IC50 at 72 h in series [2] (L929 mouse fibroblast cells) was more than 10 µg/mL.

As to `CC1(C)OB(O)c2cc(NC(=O)c3ccc(Cl)cc3Br)ccc21` [compound 75, 2-Bromo-4-chloro-N-(1-hydroxy-3,3-dimethyl-1,3-dihydro-benzo[c][1,2]oxaborol-6-yl)-benzamide], the IC50 in series [1] (setting [3]) was 0.405 µg/mL. Besides, the IC50 at 72 h in series [2] (L929 mouse fibroblast cells) was more than 10 µg/mL.
